Source: ChEMBL document CHEMBL4422681, “Comprehensive kinetic and substrate specificity analysis of an arylsulfatase from Helix pomatia using mass spectrometry” (Bioorg Med Chem, 2019)
Structures can show the parent of a compound that is named as a salt.

Key:
[1] = Stability of the compound in pH 7 ammonium acetate buffer by UPLC-MS/MS analysis; format: physicochemical
arylsulfatase [2] = experiment: Substrate activity at Helix pomatia arylsulfatase assessed as enzyme-mediated compound hydrolysis using 1 U of enzyme measured after 24 hrs by UPLC-MS/MS analysis; format: ADME; conditions: Helix pomatia arylsulfatase (isolated enzyme), read-out: Drug metabolism
arylsulfatase [3] = experiment: Substrate activity at Helix pomatia arylsulfatase assessed as enzyme-mediated compound hydrolysis using 1 U of enzyme measured after 30 mins by UPLC-MS/MS analysis; format: ADME; conditions: Helix pomatia arylsulfatase (isolated enzyme), read-out: Drug metabolism
[4] = Substrate activity at Helix pomatia arylsulfatase assessed as enzyme-mediated compound hydrolysis by measuring catalytic efficiency by UPLC-MS/MS analysis; format: ADME
arylsulfatase [5] = experiment: Substrate activity at Helix pomatia arylsulfatase assessed as enzyme-mediated compound hydrolysis by measuring Km by UPLC-MS/MS analysis; format: ADME; conditions: Helix pomatia arylsulfatase (isolated enzyme)
[6] = Substrate activity at Helix pomatia arylsulfatase assessed as enzyme-mediated compound hydrolysis by measuring Vmax by UPLC-MS/MS analysis; format: ADME
arylsulfatase [7] = experiment: Substrate activity at Helix pomatia arylsulfatase assessed as enzyme-mediated compound hydrolysis by measuring parent compound remaining using 0.1 U of enzyme measured after 30 mins by UPLC-MS/MS analysis; format: ADME; conditions: Helix pomatia arylsulfatase (isolated enzyme), read-out: Stability
[8] = Drug metabolism in pH 7 ammonium acetate buffer assessed as 7-hydroxy-4-methyl-2H-chromen-2-one formation
arylsulfatase [9] = experiment: Substrate activity at Helix pomatia arylsulfatase assessed as enzyme-mediated compound hydrolysis using 5 U of enzyme measured after 30 mins by UPLC-MS/MS analysis; format: ADME; conditions: Helix pomatia arylsulfatase (isolated enzyme), read-out: Drug metabolism

Row | SMILES | Stability [1] | metabolised at 24 h (arylsulfatase [2]) [%] | metabolised at 0.5 h (arylsulfatase [3]) [%] | Activity [4] [s⁻¹ µM⁻¹] | Km (arylsulfatase [5]) [µM] | Vmax [6] [µM/s] | remaining at 0.5 h (arylsulfatase [7]) [%] | metabolised at 0.5 h (arylsulfatase [9]) [%] | Drug metabolism [8]
1 | C=Cc1ccc(OS(=O)(=O)O)c(OC)c1 | Stable | – | 100 | – | – | – | – | – | –
2 | Cc1cc(=O)oc2cc(OS(=O)(=O)O)ccc12 | Stable | – | 100 | – | 175 | 2.66 | 3 | 100 | Metabolite detected
3 | C[C@]12CC[C@@H]3c4ccc(OS(=O)(=O)O)cc4CC[C@H]3[C@@H]1CCC2=O [ESTRONE SULFURIC ACID] | Stable | – | 100 | – | 351 | 3.8 | – | – | –
4 | COc1ccc2c(c1)c(=O)oc1cc(OS(=O)(=O)O)ccc12 | Stable | – | 100 | – | 112 | 8.21 | – | – | –
5 | O=S(=O)(O)Oc1c[nH]c2ccccc12 [INDOXYL SULFATE] | Stable | 100 | – | 1060 | 216 | 0.02 | – | – | –
6 | COc1cc(C(=O)O)ccc1OS(=O)(=O)O | Stable | 100 | – | 351 | 341 | 0.01 | – | – | –
7 | COc1cc(/C=C/C(=O)O)ccc1OS(=O)(=O)O | Stable | 100 | – | 862 | 161 | 0.01 | – | – | –

Second part, led by results:

Row | Stability [1] | metabolised at 24 h (arylsulfatase [2]) [%] | metabolised at 0.5 h (arylsulfatase [3]) [%] | Activity [4] [s⁻¹ µM⁻¹] | Km (arylsulfatase [5]) [µM] | Vmax [6] [µM/s] | remaining at 0.5 h (arylsulfatase [7]) [%] | metabolised at 0.5 h (arylsulfatase [9]) [%] | SMILES | Drug metabolism [8]
8 | Stable | 100 | – | – | – | – | – | – | Cc1c[nH]c2ccc(OS(=O)(=O)O)cc12 | –
9 | Stable | 100 | – | 696 | 131 | 0.01 | – | – | O=S(=O)(O)Oc1cccc(O)c1 | –
10 | Stable | 100 | – | 898 | 262 | 0.02 | – | – | O=C(O)/C=C/c1ccc(OS(=O)(=O)O)cc1 | –
11 | Stable | – | 100 | – | – | – | – | – | O=[N+]([O-])c1ccc(OS(=O)(=O)O)cc1 | –
12 | Stable | 100 | – | 7010 | 1020 | 0.66 | – | – | CCc1ccc(OS(=O)(=O)O)cc1 | –
13 | Stable | 100 | – | 1210 | 1490 | 0.17 | – | – | CC(=O)NCCc1ccc(OS(=O)(=O)O)cc1 | –
14 | Stable | 100 | – | 623 | 1400 | 0.08 | – | – | Cc1ccc(OS(=O)(=O)O)cc1 | –
